Experimental data reported in US5795907A, “Gastin and CCK receptor ligands” (James Black Foundation Limited, priority 1994, dated 1998).

What was measured:
[1] = target: T1, gastrin (Rattus norvegicus, UniProt P30553); experiment: gastrin antagonist activity in an immature rat stomach assay (pentagastrin-stimulated acid secretion); details: cumulative pentagastrin dose-response curves after 60 min with drug; for Kb: read-out: Gastrin pKB (converted)
T1 construct: The stomach was lowered into a jacketed organ bath containing 40 ml of buffered solution; from tissue; host or cells: isolated perfused whole stomach of immature rats (ca. 21 days old)
T1 sequence (P30553 1-452): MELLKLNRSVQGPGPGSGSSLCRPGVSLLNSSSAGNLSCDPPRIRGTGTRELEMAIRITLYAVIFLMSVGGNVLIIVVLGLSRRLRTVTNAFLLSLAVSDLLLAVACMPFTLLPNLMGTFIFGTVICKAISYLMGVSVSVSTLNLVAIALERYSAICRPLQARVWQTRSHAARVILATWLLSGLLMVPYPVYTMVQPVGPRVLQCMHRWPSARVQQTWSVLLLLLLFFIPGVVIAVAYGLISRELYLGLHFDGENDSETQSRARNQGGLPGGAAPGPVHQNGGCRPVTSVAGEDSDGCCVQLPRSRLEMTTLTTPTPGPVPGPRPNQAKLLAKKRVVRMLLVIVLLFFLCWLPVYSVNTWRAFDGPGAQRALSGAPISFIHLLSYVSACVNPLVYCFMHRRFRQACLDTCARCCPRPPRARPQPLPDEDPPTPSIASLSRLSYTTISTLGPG
How it was run: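 Isolated lumen-perfused immature rat stomach (33-50 g, ca. 21 days) in 37° organ bath with 3×10^-8 M 5-methylfurmethide; acid secretion read by pH electrode in perfusate. Compound added to serosal bath after 120 min stabilisation; cumulative pentagastrin dose-response curves begun 60 min later and analysed by the Black et al. method.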

[2] = target: T2, CCKB receptor (Mus musculus, UniProt P56481); experiment: CCKB receptor radioligand binding assay in mouse cortical membranes ([125I]-CCK8S); details: [125I]-CCK8S 200 pM, 150 min at 21±3°; for Ki: read-out: CCKB pKi (converted)
T2 construct: The cortex was dissected, weighed and homogenised in 40ml ice-cold buffer; tissue Charles River (supplier of the CD1 mice); host or cells: cerebral cortex membranes of male CD1 mice
T2 sequence (P56481 1-453): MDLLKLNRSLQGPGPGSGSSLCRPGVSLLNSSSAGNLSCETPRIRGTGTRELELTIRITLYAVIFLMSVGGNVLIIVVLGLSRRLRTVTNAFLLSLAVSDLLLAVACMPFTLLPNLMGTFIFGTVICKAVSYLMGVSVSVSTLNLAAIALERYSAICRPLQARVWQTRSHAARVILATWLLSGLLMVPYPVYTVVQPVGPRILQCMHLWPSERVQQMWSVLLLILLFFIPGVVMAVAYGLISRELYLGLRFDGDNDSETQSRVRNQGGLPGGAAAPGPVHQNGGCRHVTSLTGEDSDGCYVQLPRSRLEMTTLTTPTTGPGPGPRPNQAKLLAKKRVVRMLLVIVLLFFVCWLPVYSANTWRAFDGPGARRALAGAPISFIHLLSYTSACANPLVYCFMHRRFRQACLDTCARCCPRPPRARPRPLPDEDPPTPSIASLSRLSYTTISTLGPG
How it was run: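 This was competition binding with tracer [125I]-CCK8S (200 pM solution added), run for 150 min at 21±3° on male CD1 mouse cortex membranes in pH 7.2 HEPES buffer with bacitracin. Filtration then gamma counting gave bound radioactivity. L-365,260 set the non-specific level.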

[3] = target: T3, CCKA (Cavia porcellus, UniProt Q63931); experiment: CCKA radioligand binding assay in guinea-pig pancreas membranes ([125I]-CCK8(S)); details: PD134,308 present, 150 minutes at 21±3°; for Ki: read-out: CCKA pKi (converted)
T3 construct: The pancreatata were homogenised in 40 ml ice-cold HEPES buffer using a polytron; from tissue; host or cells: pancreas membranes of male Dunkin Hartley guinea-pigs
T3 sequence (Q63931 1-430): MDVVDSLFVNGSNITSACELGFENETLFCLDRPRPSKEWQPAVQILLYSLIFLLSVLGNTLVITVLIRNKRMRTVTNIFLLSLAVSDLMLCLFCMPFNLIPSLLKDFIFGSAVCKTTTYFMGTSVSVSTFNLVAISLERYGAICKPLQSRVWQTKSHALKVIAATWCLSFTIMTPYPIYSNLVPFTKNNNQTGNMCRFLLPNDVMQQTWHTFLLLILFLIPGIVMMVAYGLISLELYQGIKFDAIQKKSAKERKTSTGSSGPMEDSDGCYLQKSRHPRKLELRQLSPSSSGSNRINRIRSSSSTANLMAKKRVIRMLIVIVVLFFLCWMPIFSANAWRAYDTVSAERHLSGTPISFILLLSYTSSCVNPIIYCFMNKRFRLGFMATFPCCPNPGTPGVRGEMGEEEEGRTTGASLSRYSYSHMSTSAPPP
How it was run: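 Competition for [125I]-CCK8(S) (added as […] solution) ran for 150 min at 21±3° in HEPES pH 7.2. Membranes came from male guinea-pig pancreas at 1 mg/ml original wet weight, with 0.375 μM PD134,308 in the suspension. Filter-bound counts were gamma-counted; 100 nM L-364,718 (added solution) defined non-specific binding.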

Row | Kb [1] [nM] | Ki [2] [nM] | Ki [3] [nM] | Gastrin pKB [1] | CCKB pKi [2] | CCKA pKi [3] | Compound
1 | 126 | 200 | > 10000 |  |  |  | O=C(O)c1cc(NC(=O)[C@H](Cc2ccccc2)NC(=O)c2cc3cc[nH]c3cc2C(=O)NCC2CCC(O)CC2)cc(C(=O)O)c1 (single isomer, unassigned) [Example 109, 5-(1S-(3,5-dicarboxyphenylaminocarbonyl)-2-phenylethylaminocarbonyl)-6-(4-hydroxycyclohexanemethylaminocarbonyl)-indole]
2 | 2.51 | 6.31 | 2000 |  |  |  | O=C(NCC12CC3CC(CC(C3)C1)C2)c1cc2nc[nH]c2cc1C(=O)N[C@@H](Cc1ccccc1)C(=O)Nc1cccc(S(=O)(=O)NC(=O)C(F)(F)F)c1 [Example 128, 5-(1S-(3-trifluoroacetylaminosulphonylphenylaminocarbonyl)-2-phenylethylaminocarbonyl)-6-(1-adamantanemethylaminocarbonyl)-benzimidazole]
3 | 2.51 | 1.26 | 316 |  |  |  | O=C(NCC12CC3CC(CC(C3)C1)C2)c1cc2[nH]ccc2cc1C(=O)N[C@@H](Cc1ccccc1)C(=O)Nc1cc(-c2nn[nH]n2)cc(-c2nn[nH]n2)c1 [Example 104, 5-(1S-(3,5-ditetrazolylphenylaminocarbonyl)-2-phenylethylaminocarbonyl)-6-(1-adamantanemethylaminocarbonyl)-indole]
4 | 200 | 200 | 501 |  |  |  | O=C(NCC12CC3CC(CC(C3)C1)C2)c1cc2nc[nH]c2cc1C(=O)N[C@@H](Cc1ccccc1)C(=O)Nc1cc(C=NO)cc(C=NO)c1 [Example 118, 5-(1S-(3,5-dihydroxyiminomethylenephenylaminocarbonyl)-2-phenylethylaminocarbonyl)-6-(1-adamantanemethylaminocarbonyl)-benzimidazole]
5 | 100 | 501 | 5010 |  |  |  | O=C(O)c1cc(NC(=O)[C@H](Cc2ccccc2)NC(=O)C2Cc3[nH]cnc3CN2C(=O)NCC23CC4CC(CC(C4)C2)C3)cc(C(=O)O)c1 (mixture of isomers) [Example 126, (±)-6-(1S-(3,5-dicarboxyphenylaminocarbonyl)-2-phenylethylaminocarbonyl)-5-(1-adamantanemethylaminocarbonyl)-4,5,6,7-tetrahydro-5-aza-benzimidazole]

Further lines, the compound ahead of its results:

Row | Compound | Kb [1] [nM] | Ki [2] [nM] | Ki [3] [nM] | Gastrin pKB [1] | CCKB pKi [2] | CCKA pKi [3]
6 | O=C(O)c1cc2ccccc2cc1C(=O)NCC12CC3CC(CC(C3)C1)C2 [Example 1, 3-(1-adamantanemethylaminocarbonyl)-2-naphthoic acid] | 1580 | 3160 | 7940 |  |  | 
7 | 5-(1S-(3,5-dicarboxyphenylaminocarbonyl)-ethylaminocarbonyl)-6-(cycloheptanemethylaminocarbonyl)-indole and regioisomer with substituents at positions 5 and 6 reversed [Example 58] |  |  |  | 7.5 | 6.5 | 5.0
8 | 5-(1S-(trans 3,4-dicarboxypyrrolidinocarbonyl)-2-phenylethylaminocarbonyl)-6-(1-adamantanemethylaminocarbonyl)-indole and regioisomer with substituents at positions 5 and 6 reversed [Example 50] |  |  |  | 6.9 | 6.6 | 6.1
9 | O=C(NCC12CC3CC(CC(C3)C1)C2)c1cc2nc[nH]c2cc1C(=O)N[C@@H](Cc1ccccc1)C(=O)Nc1cc(-c2nn[nH]n2)cc(-c2nn[nH]n2)c1 [Example 80, 5-(1S-(3,5-ditetrazolylphenylaminocarbonyl)-2-phenylethylaminocarbonyl)-6-(1-adamantanemethylaminocarbonyl)-benzimidazole] | 6.31 | 3.98 | 794 |  |  | 
10 | O=C(NCC12CC3CC(CC(C3)C1)C2)c1cc2[nH]ccc2cc1C(=O)N[C@@H](Cc1ccccc1)C(=O)Nc1cccc(-c2nn[nH]n2)c1 [Example 100, 5-(1S-(3-tetrazolylphenylaminocarbonyl)-2-phenylethylaminocarbonyl)-6-(1-adamantanemethylaminocarbonyl)-indole] | 31.6 | 12.6 | 398 |  |  | 
11 | CN(O)C(=O)c1cc(NC(=O)[C@H](Cc2ccccc2)NC(=O)c2cc3cc[nH]c3cc2C(=O)NCC23CC4CC(CC(C4)C2)C3)cc(C(=O)N(C)O)c1 [Example 103, 5-(1S-(3,5-dihydroxy-N-(methyl)aminocarbonylphenylaminocarbonyl)-2-phenylethylaminocarbonyl)-6-(1-adamantanemethylaminocarbonyl)-indole] |  |  |  | 7.8 | 7.0 | 5.2
12 | O=C(NCC12CC3CC(CC(C3)C1)C2)c1cc2nc[nH]c2cc1C(=O)N[C@@H](Cc1ccccc1)C(=O)NCc1ccc(F)cc1 [Example 67, 5-(1S-(4-fluorophenylmethylaminocarbonyl)-2-phenylethylaminocarbonyl)-6-(1-adamantanemethylaminocarbonyl)-benzimidazole] | 158 | 501 | 2000 |  |  | 
13 | Cc1ccc(C(=O)O)cc1NC(=O)[C@H](Cc1ccccc1)NC(=O)c1cc2[nH]cnc2cc1C(=O)NCC12CC3CC(CC(C3)C1)C2 [Example 82, 5-(1S-(2-methyl-5-carboxyphenylaminocarbonyl)-2-phenylethylaminocarbonyl)-6-(1-adamantanemethylaminocarbonyl)-benzimidazole] | 126 | 100 | 2000 |  |  | 
14 | 5-(1S-(3-methoxycarbonyl-5-carboxy-phenylaminocarbonyl)-2-phenylethylaminocarbonyl)-6-(1-adamantanemethylaminocarbonyl)-indole and regioisomer with substituents at positions 5 and 6 reversed [Example 40] |  |  |  | 7.3 | 6.8 | 6.3
15 | CC(C)(C)NS(=O)(=O)c1cc(NC(=O)[C@H](Cc2ccccc2)NC(=O)c2cc3cc[nH]c3cc2C(=O)NCC23CC4CC(CC(C4)C2)C3)cc(S(=O)(=O)NC(C)(C)C)c1 [Example 95, 5-(1S-(3,5-di-tert-butylaminosulphonylphenylaminocarbonyl)-2-phenylethylaminocarbonyl)-6-(1-adamantanemethylaminocarbonyl)-indole] |  |  |  | 5.9 | 5.9 | 5.8
16 | O=C(O)c1cc(NC(=O)[C@H](Cc2ccccc2)NC(=O)c2cc3[nH]cnc3cc2C(=O)NCC2CCCCCC2)cc(C(=O)O)c1 [Example 62, 5-(1S-(3,5-dicarboxyphenylaminocarbonyl)-2-phenylethylaminocarbonyl)-6-(1-cycloheptanemethylaminocarbonyl)-benzimidazole] | 6.31 | 15.8 | 3980 |  |  | 
